In general, pEC50 refers to the negative decadic logarithm of the EC50, by convention in mol/L.

SMILES strings stand for the structures. pEC50: −log10 of the molar value.

The assay relates to A375 cells. The assay is described as follows: A375 cell immunofluorescence assay (with 1 μM S1152 and 0.5 μM S1008), EC50. The class given is cell-based. The conditions noted are these: 1 μM S1152 + 0.5 μM S1008, one day, ratio FL2/FL3 staining (sc-365823 antibody). The protocol: One thousand four hundred A375 cells were seeded in each well of a 384 well microplate. One day later they were treated with 1 μM S1152 (Selleckchem) in dimethyl sulfoxide, 0.5 μM S1008 (Selleckchem) and dose ranges of invention compounds for one day in Dulbecco's Modified Eagle's Medium supplemented with 10% fetal calf serum and 2 mM (2S)-2-amino-4-carbamoylbutanoic acid. Wells were incubated with 4% polyoxymethylene (Sigma Aldrich 158127) at ambient temperature. After ten minutes, polyoxymethylene was replaced with phosphate-buffered saline. After one minute phosphate-buffered saline was replaced with 0.2% polyethylene glycol octylphenyl ether in phosphate-buffered saline. After ten minutes at ambient temperature 0.2% polyethylene glycol octylphenyl ether in phosphate-buffered saline was replaced with 1% aminoethanoic acid in phosphate-buffered saline. […] After one hour at 37° C., the solution was replaced with phosphate-buffered saline twice. Phosphate-buffered saline was replaced with 2 μg/ml A-11029 (Invitrogen) in 0.05% polyoxyethylene (20) sorbitan monolaurate in phosphate-buffered saline. […] After one hour at ambient temperature in the dark, signal in wells was measured with a Acumen Cellista. 3,8-Diamino-5-[3-(diethylmethylammonio)propyl]-6-phenylphenanthridinium diiodide-positive objects were defined in FL3 (565-600 nm) with a perimeter between 50-800 μm and a total intensity of 10000-1000000 FLU. Signal in FL2 (500-530 nm) was measured in defined objects. A normalized ratio of total ln FL2 over total ln FL3 staining was log transformed. A non-linear regression (variable slope, 4 parameters) was used to calculate EC50 values using GraphPad Prism (Version 7.0d).
`CC(=O)N1CCCC(c2nc(Nc3cccc(F)c3)cc(-c3cccs3)n2)C1` (centres unmarked): the pEC50 was 5.00 to 6.00.

On to `CCC(=O)N1CCCC(c2nc(Nc3ncccn3)cc(-c3cccnc3)n2)C1` (centres unmarked), for which the pEC50 is under 5.00. As for `CCC(=O)N1CCCC(c2nc(Nc3cccc(F)c3)cc(-c3cncc4[nH]ccc34)n2)C1` (centres unmarked), the figure is under 5.00. With `CC(=O)N1CCN(c2cncc(-c3cc(Nc4cccc(F)c4)nc(C4CCCN(C(C)=O)C4)n3)c2)CC1` (centres unmarked), the pEC50 is 5.00 to 6.00. As to `CCc1cncc(-c2cc(Nc3cccc(F)c3)nc(C3CCCN(C(C)=O)C3)n2)c1` (centres unmarked), the pEC50 is over 6.00.

Regarding `CCC(=O)N1CCCC(c2nc(Nc3cccc(F)c3)cc(-c3cccc(N4CCOCC4)c3)n2)C1` (centres unmarked), the pEC50 was 5.00 to 6.00. Regarding `CC(=O)N1CCCC(c2nc(Nc3ccc4c(c3)CCC4)cc(-c3cccnc3)n2)C1` (centres unmarked), the pEC50 was under 5.00.

As to `CCC(=O)N1CCCC(c2nc(NC3CC3)cc(-c3cccnc3)n2)C1` (centres unmarked), the pEC50 was under 5.00. As for `CC(=O)N1CCOCC(c2nc(Nc3cccc(F)c3)cc(-c3cccnc3)n2)C1` (centres unmarked), the figure is 5.00 to 6.00; as for `CC(=O)N1CCCC(c2nc(Nc3cccc(F)c3)cc(-c3ncco3)n2)C1` (centres unmarked), under 5.00.

As to `CC(=O)N1CC(O)CC(c2nc(Nc3cccc(F)c3)cc(-c3cccnc3)n2)C1` (centres unmarked), the pEC50 is 5.00 to 6.00.

In the case of `CCC(=O)N1CCCC(c2nc(Nc3cccc(F)c3)cc(C3=CCCC3)n2)C1` (centres unmarked), the pEC50 is under 5.00. Consider `O=C1CCCC2C(c3nc(Nc4cccc(F)c4)cc(-c4cccnc4)n3)CCCN12` (centres unmarked), for which the pEC50 was 5.00 to 6.00. Under `CC(=O)N1C[C@H](c2nc(Nc3cccc(F)c3)cc(-c3cncc(O)c3)n2)CC[C@@H]1C` stands over 6.00; under `CCC(=O)N1CCCC(c2nc(Nc3cccc(F)c3)cc(-c3cccc(NC(C)=O)c3)n2)C1` (centres unmarked), 5.00 to 6.00. As for `CCC(=O)N1CCCC(c2nc(Nc3cccc(F)c3)cc(-c3sc(C(C)C)nc3C)n2)C1` (centres unmarked), the figure is 5.00 to 6.00.

Regarding `CCC(=O)N1CCCC(c2nc(Nc3cccc(F)c3)cc(-c3ccccc3)n2)C1` (centres unmarked), the negative logarithm of the EC50 (pEC50) is 5.00 to 6.00.

For `O=C(N1CCCC(c2nc(Nc3cccc(F)c3)cc(-c3cccnc3)n2)C1)C(F)(F)F` (centres unmarked), the pEC50 was under 5.00. As for `CCC(=O)N1CCCC(c2nc(Nc3cccc(F)c3)cc(-c3cnn(C(C)C)c3)n2)C1` (centres unmarked), the figure is under 5.00. As for `CCC(=O)N1CCCC(c2nc(NCc3ccccc3)cc(-c3cccnc3)n2)C1` (centres unmarked), the figure is under 5.00; as for `CC(=O)N1CCCC(c2nc(Nc3cccc(F)c3)cc(Nc3ccccn3)n2)C1` (centres unmarked), 5.00 to 6.00; as for `CC(=O)N1CCCC(c2nc(Nc3cc(F)cc(F)c3)cc(-c3ccnnc3)n2)C1` (centres unmarked), 5.00 to 6.00. Consider `CC(=O)N1C[C@H](c2nc(Nc3cncc(C)c3)cc(-c3cccnc3)n2)CC[C@@H]1C`, for which the negative-log EC50 (pEC50) was over 6.00. As for `COc1cncc(-c2cc(Nc3ccc(Cl)cc3)nc(C3CCCN(C(C)=O)C3)n2)c1` (centres unmarked), the figure is 5.00 to 6.00; as for `CC(=O)N1CCCC(c2nc(Nc3cc(F)cc(F)c3)cc(-c3cncnc3)n2)C1` (centres unmarked), 5.00 to 6.00; as for `CC(=O)N1CCCC(c2cc(Nc3cccc(F)c3)nc(-c3cccnc3)c2)C1` (centres unmarked), under 5.00. In the case of `CCC(=O)N1CCCC(c2nc(Nc3ccc(OC)cc3)cc(-c3cccnc3)n2)C1` (centres unmarked), the pEC50 was 5.00 to 6.00.

For `CC(=O)N1CCCC(c2nc(Nc3cccc(C)c3)cc(-c3cncc(C)c3)n2)C1` (centres unmarked), the pEC50 is over 6.00. Under `CC(=O)N1CCCC(c2nc(NC3CCCC3)cc(-c3cccnc3)n2)C1` (centres unmarked) stands under 5.00; under `CCC(=O)N1CCCC(c2nc(Nc3cccc(F)c3)cc(-c3cncc(F)c3)n2)C1` (centres unmarked), under 5.00; under `CC(=O)N1CCCC(c2nc(Nc3cccc(F)c3)cc(-c3ccccc3)n2)C1` (centres unmarked), 5.00 to 6.00.

Regarding `CC(=O)N1CCCC(c2nc(Nc3cccc(F)c3)cc(-c3cnn(CC(F)(F)F)c3)n2)C1` (centres unmarked), the pEC50 is 5.00 to 6.00. Under `CCC(=O)N1CCCC(c2nc(Cl)cc(Nc3ccccc3F)n2)C1` (centres unmarked) stands under 5.00; under `CC(=O)N1CCCC(c2nc(Nc3cccc(F)c3)cc(-c3cncc(C(F)F)c3)n2)C1` (centres unmarked), over 6.00; under `CC(F)(F)C(=O)N1CCCC(c2nc(Nc3cccc(F)c3)cc(-c3cccnc3)n2)C1` (centres unmarked), under 5.00.

For `CC(=O)N1CCCC(c2nc(Nc3cccc(F)c3)cc(-c3cnc4[nH]ccc4c3)n2)C1` (centres unmarked), the pEC50 was 5.00 to 6.00. `O=C1CCC2CCC(c3nc(Nc4cccc(F)c4)cc(-c4cccnc4)n3)CN12` (centres unmarked): the pEC50 was under 5.00. As for `CCC(=O)N1CCCC(c2nc(Nc3ccccc3F)cc(-c3ccncc3)n2)C1` (centres unmarked), the figure is under 5.00. Under `CC(=O)N1CCCC(c2nc(Nc3cccc(F)c3)cc(-c3cc(C)cs3)n2)C1` (centres unmarked) stands over 6.00; under `COc1cncc(-c2cc(Nc3cccc(F)c3)cc(C3CCCN(C(C)=O)C3)n2)c1` (centres unmarked), 5.00 to 6.00; under `CC(=O)N1C[C@H](c2nc(Nc3cncc(C)c3)cc(Nc3ncccn3)n2)CC[C@@H]1C`, over 6.00. Under `COc1cncc(-c2cc(Nc3cccc(Cl)c3)nc([C@H]3CCCN(C(C)=O)C3)n2)c1` stands 5.00 to 6.00.

For the compound `CC(=O)N1CCCC(c2nc(Nc3cccc(F)c3)cc(-c3cccnc3)n2)C1` (centres unmarked), the pEC50 was over 6.00. As for `CC(=O)N1CCCC(c2nc(Nc3cccc(F)c3)cc(-c3cccnc3)n2)C1C` (centres unmarked), the figure is under 5.00; as for `CCC(=O)N1CCCC(c2nc(Nc3ccccc3F)cc(-c3cccnc3)n2)C1` (centres unmarked), 5.00 to 6.00; as for `COc1ccc(Nc2cc(-c3cncc(OC)c3)nc(C3CCCN(C(C)=O)C3)n2)cc1` (centres unmarked), 5.00 to 6.00. In the case of `CCC(=O)N1CCCC(c2nc(Nc3cccc(F)c3)cc(-c3ncccn3)n2)C1` (centres unmarked), the negative logarithm of the EC50 (pEC50) was under 5.00. On to `CC(=O)N1CCCC(c2nc(Nc3cccc(F)c3)cc(-c3ccc(C)nc3C)n2)C1` (centres unmarked), for which the pEC50 is 5.00 to 6.00. Under `CC(=O)N1CC(F)CC(c2nc(Nc3cccc(F)c3)cc(-c3cccnc3)n2)C1` (centres unmarked) [drawing 702] stands 5.00 to 6.00; under `CCC(=O)N1CCCC(c2nc(Nc3cccc(F)c3)cc(-c3ccccc3NC(C)=O)n2)C1` (centres unmarked), under 5.00.

`COC(=O)c1cncc(-c2cc(Nc3cccc(F)c3)nc(C3CCCN(C(C)=O)C3)n2)c1` (centres unmarked): the negative logarithm of the EC50 (pEC50) was under 5.00. On to `CCC(=O)N1CCCC(c2nc(Nc3cccc(F)c3)cc(-c3cscn3)n2)C1` (centres unmarked), for which the negative logarithm of the EC50 (pEC50) was under 5.00. Under `CCC(=O)N1CCCC(c2nc(Nc3cccc(F)c3)cc(-c3ccc(C(=O)NC)nc3)n2)C1` (centres unmarked) stands under 5.00; under `CC(=O)N1CC(OCc2ccccc2)CC(c2nc(Nc3cccc(F)c3)cc(-c3cccnc3)n2)C1` (centres unmarked), 5.00 to 6.00. As to `CC(=O)N1CCCC(c2nc(Nc3cccc(F)c3)cc(-c3cc(Cl)cs3)n2)C1` (centres unmarked), the pEC50 was 5.00 to 6.00. For the compound `CC(=O)N1CCCC(c2nc(Nc3cncnc3)cc(Nc3cccc(F)c3)n2)C1` (centres unmarked), the pEC50 was 5.00 to 6.00. As for `CC(=O)N1CC(c2nc(Nc3cccc(F)c3)cc(-c3cccnc3)n2)CC(C)C1C` (centres unmarked), the figure is over 6.00; as for `COC(=O)N1CCCC(c2nc(Nc3cccc(F)c3)cc(-c3cccnc3)n2)C1` (centres unmarked), 5.00 to 6.00; as for `COc1csc(-c2cc(Nc3cccc(F)c3)nc(C3CCCN(C(C)=O)C3)n2)c1` (centres unmarked), over 6.00. For `CC(=O)N1C[C@H](c2nc(Nc3cncc(C)c3)cc(-c3cncc(C)c3)n2)CC[C@@H]1C`, the negative-log EC50 (pEC50) was over 6.00. Under `CC(=O)N1CCCC(c2nc(Nc3cccc(F)c3)cc(-c3sc(C(C)C)nc3C)n2)C1` (centres unmarked) stands 5.00 to 6.00; under `CCC(=O)N1CCCC(c2nc(NC)cc(-c3cccnc3)n2)C1` (centres unmarked), under 5.00. As for `CC(=O)N1CCCC(c2nc(Nc3cccc(F)c3)cc(-c3cnn[nH]3)n2)C1` (centres unmarked), the figure is under 5.00; as for `CC(=O)N1CC(c2nc(Nc3cccc(F)c3)cc(-c3cccnc3)n2)Cc2ccccc21` (centres unmarked), under 5.00; as for `CCC(=O)N1CCCC(c2nc(Nc3cccc(F)c3)cc(C3CCCCC3)n2)C1` (centres unmarked), under 5.00.

For `CC(=O)N1CCCC(c2nc(NC34CC(C3)C4)cc(-c3cncc4[nH]ccc34)n2)C1` (centres unmarked), the pEC50 is 5.00 to 6.00. As for `O=C(C1CC1)N1CCCC(c2nc(Nc3cccc(F)c3)cc(-c3cccnc3)n2)C1` (centres unmarked), the figure is 5.00 to 6.00; as for `CC(=O)N1CC(F)CC(c2nc(Nc3cccc(F)c3)cc(-c3cccnc3)n2)C1` (centres unmarked) [drawing 703], 5.00 to 6.00.

`CC(=O)N1CCCC(c2cc(Nc3cccc(F)c3)cc(-c3cccnc3)n2)C1` (centres unmarked): the pEC50 was 5.00 to 6.00.

`CCC(=O)N1CCCC(c2nc(Nc3cc(F)cc(F)c3)cc(-c3cccnc3)n2)C1` (centres unmarked): the pEC50 is 5.00 to 6.00. Under `CC(=O)N1C[C@H](c2nc(Nc3ccccc3)cc(-c3cncc4[nH]ccc34)n2)CC[C@@H]1C` stands over 6.00.

On to `CC(=O)N1CCCC(Nc2cc(Nc3cccc(F)c3)nc(C3CCCN(C(C)=O)C3)n2)C1` (centres unmarked), for which the pEC50 was under 5.00. Under `CC(=O)Nc1cncc(-c2cc(Nc3cccc(F)c3)nc(C3CCCN(C(C)=O)C3)n2)c1` (centres unmarked) stands over 6.00; under `CCC(=O)N1CCCC(c2nc(Nc3cccc(F)c3)cc(-c3cccnc3)n2)C1` (centres unmarked), 5.00 to 6.00. As to `CC(=O)N1CCCC(c2nc(Nc3cccc(F)c3)c(C)c(-c3cccnc3)n2)C1` (centres unmarked), the pEC50 is under 5.00. As for `CCC(=O)N1CCCC(c2nc(Nc3cccc(F)c3)cc(-c3cnn(CC(F)(F)F)c3)n2)C1` (centres unmarked), the figure is 5.00 to 6.00; as for `CCC(=O)N1CCCC(c2nc(NCCN(C)C)cc(Nc3cccc(F)c3)n2)C1` (centres unmarked), under 5.00.

Source of the values: patent US20230067929A1, “HETEROCYCLIC DERIVATIVES, PHARMACEUTICAL COMPOSITIONS AND THEIR USE IN THE TREATMENT, AMELIORATION OR PREVENTION OF CANCER” (Tolremo Therapeutics AG, priority 2018, published 2023).
